Here are results for one compound from publication PMC5218480 (PLoS ONE, 2017).

The test system of this experiment is MV-4-11 cells. Briefly: Gene expression microarray analysis (Affymetrix PrimeView) and GSEA. Format: cell-based, human. More on the design: RFU PODN (11730768_x_at) / Fold change /veh PODN (11730768_x_at) / RFU LINC00158 (11744669_a_at) / Fold change /veh LINC00158 (11744669_a_at) / RFU DUSP10 (11751237_a_at) / Fold change /veh DUSP10 (11751237_a_at) / RFU ID3 (11757404_x_at) / Fold change /veh ID3 (11757404_x_at) / RFU PLEKHG5 (11737974_s_at) / Fold change /veh PLEKHG5 (11737974_s_at) / RFU LRRC4B (11730491_at) / Fold change /veh LRRC4B (11730491_at) / RFU GIMAP4 (11747438_a_at) / Fold change /veh GIMAP4 (11747438_a_at) / RFU KRT8 (11758183_x_at) / Fold change /veh KRT8 (11758183_x_at) / RFU CNN1 (11734310_a_at) / Fold change /veh CNN1 (11734310_a_at) / RFU VPS37D (11726825_at) / Fold change /veh VPS37D (11726825_at) / RFU C10orf10 (11716522_x_at) / Fold change /veh C10orf10 (11716522_x_at) / RFU KIR2DL2 /// KIR2DL4 /// KIR2DL5A /// KIR2DL5B /// KIR2DS1 /// KIR2DS2 /// KIR2DS3 /// KIR2DS4 /// KIR3DL3 /// KIR3DL3 /// KIR3DS1 (11738374_at) / Fold change /veh KIR2DL2 /// KIR2DL4 /// KIR2DL5A /// KIR2DL5B /// KIR2DS1 /// KIR2DS2 /// KIR2DS3 /// KIR2DS4 /// KIR3DL3 /// KIR3DL3 /// KIR3DS1 (11738374_at) / RFU C1QL1 (11718748_at) / Fold change /veh C1QL1 (11718748_at) / RFU TMPRSS4 (11747572_a_at) / Fold change /veh TMPRSS4 (11747572_a_at) / RFU HAMP (11756126_x_at) / Fold change /veh HAMP (11756126_x_at) / RFU RNFT2 (11725882_a_at) / Fold change /veh RNFT2 (11725882_a_at) / RFU NR4A2 (11747474_a_at) / Fold change /veh NR4A2 (11747474_a_at) / RFU ABCC12 (11746883_a_at) / Fold change /veh ABCC12 (11746883_a_at) / RFU TMEM136 (11760407_x_at) / Fold change /veh TMEM136 (11760407_x_at) / RFU CLDN22 /// WWC2 (11732394_at) / Fold change /veh CLDN22 /// WWC2 (11732394_at) / RFU HLA-DPB1 (11760878_x_at) / Fold change /veh HLA-DPB1 (11760878_x_at) / RFU SPINT1 (11716480_a_at) / Fold change /veh SPINT1 (11716480_a_at) / RFU GAP43 (11754022_s_at) / Fold change /veh GAP43 (11754022_s_at) / RFU A4GNT (11735810_at) / Fold change /veh A4GNT (11735810_at) / RFU PRB3 (11715151_x_at) / Fold change /veh PRB3 (11715151_x_at) / RFU TUBB4B (11761932_at) / Fold change /veh TUBB4B (11761932_at) / RFU CAPN14 (11732068_a_at) / Fold change /veh CAPN14 (11732068_a_at) / RFU TMCC2 (11721928_a_at) / Fold change /veh TMCC2 (11721928_a_at) / RFU IRGQ (11745062_a_at) / Fold change /veh IRGQ (11745062_a_at) / RFU FAM174B (11720279_a_at) / Fold change /veh FAM174B (11720279_a_at) / RFU TMPRSS4 (11748680_a_at) / Fold change /veh TMPRSS4 (11748680_a_at) / RFU FAM212B (11763350_a_at) / Fold change /veh FAM212B (11763350_a_at) / RFU PLEKHG5 (11743358_a_at) / Fold change /veh PLEKHG5 (11743358_a_at) / RFU ZSCAN30 (11745921_a_at) / Fold change /veh ZSCAN30 (11745921_a_at) / RFU CMKLR1 (11741424_a_at) / Fold change /veh CMKLR1 (11741424_a_at) / RFU LOC101060620 /// MAPK8IP1 (11723275_at) / Fold change /veh LOC101060620 /// MAPK8IP1 (11723275_at) / RFU SPTSSB (11747773_x_at) / Fold change /veh SPTSSB (11747773_x_at) / RFU PRSS12 (11739890_at) / Fold change /veh PRSS12 (11739890_at) / RFU BIN1 (11741810_x_at) / Fold change /veh BIN1 (11741810_x_at) / RFU WNT11 (11732464_a_at) / Fold change /veh WNT11 (11732464_a_at) / RFU C10orf10 (11716521_a_at) / Fold change /veh C10orf10 (11716521_a_at) / RFU C5orf56 (11738089_at) / Fold change /veh C5orf56 (11738089_at) / RFU CYB561 (11721691_x_at) / Fold change /veh CYB561 (11721691_x_at) / RFU ANKRD19P (11752326_a_at) / Fold change /veh ANKRD19P (11752326_a_at) / RFU OR2T12 /// OR2T33 /// OR2T8 (11738714_s_at) / Fold change /veh OR2T12 /// OR2T33 /// OR2T8 (11738714_s_at) / RFU VCAN (11748164_a_at) / Fold change /veh VCAN (11748164_a_at) / RFU JSRP1 (11732532_at) / Fold change /veh JSRP1 (11732532_at) / RFU KRTAP10-11 (11738290_x_at) / Fold change /veh KRTAP10-11 (11738290_x_at) / RFU MYO3A (11730013_a_at) / Fold change /veh MYO3A (11730013_a_at) / RFU EBF3 (11725865_a_at) / Fold change /veh EBF3 (11725865_a_at) / RFU CAMK2N1 (11719241_x_at) / Fold change /veh CAMK2N1 (11719241_x_at) / RFU C5orf56 (11738088_a_at) / Fold change /veh C5orf56 (11738088_a_at) / RFU OLFML3 (11715873_a_at) / Fold change /veh OLFML3 (11715873_a_at) / RFU LOC100653217 /// NTM (11731650_a_at) / Fold change /veh LOC100653217 /// NTM (11731650_a_at) / RFU MAPK11 (11762145_a_at) / Fold change /veh MAPK11 (11762145_a_at) / RFU FIZ1 (11724087_x_at) / Fold change /veh FIZ1 (11724087_x_at) / RFU OASL (11726364_x_at) / Fold change /veh OASL (11726364_x_at) / RFU SOX15 (11748057_x_at) / Fold change /veh SOX15 (11748057_x_at) / RFU CD79A (11719716_a_at) / Fold change /veh CD79A (11719716_a_at) / RFU HIST1H1D (11736915_at) / Fold change /veh HIST1H1D (11736915_at) / RFU CASKIN2 (11723855_a_at) / Fold change /veh CASKIN2 (11723855_a_at) / RFU LOC730098 (11760151_x_at) / Fold change /veh LOC730098 (11760151_x_at) / RFU OR4N2 (11742367_at) / Fold change /veh OR4N2 (11742367_at) / RFU PRRT2 (11749266_a_at) / Fold change /veh PRRT2 (11749266_a_at) / RFU SNX32 (11753110_a_at) / Fold change /veh SNX32 (11753110_a_at) / RFU CDHR5 (11726645_a_at) / Fold change /veh CDHR5 (11726645_a_at) / RFU RCAN1 (11760418_a_at) / Fold change /veh RCAN1 (11760418_a_at) / RFU FAM167A (11723789_a_at) / Fold change /veh FAM167A (11723789_a_at) / RFU FAM26E (11764081_at) / Fold change /veh FAM26E (11764081_at) / RFU ISYNA1 (11749810_s_at) / Fold change /veh ISYNA1 (11749810_s_at) / RFU ACY1 (11761880_at) / Fold change /veh ACY1 (11761880_at) / RFU 11764098_at / Fold change /veh 11764098_at / RFU SAMD14 (11745864_x_at) / Fold change /veh SAMD14 (11745864_x_at) / RFU NPB (11741838_a_at) / Fold change /veh NPB (11741838_a_at) / RFU TMPRSS6 (11731388_a_at) / Fold change /veh TMPRSS6 (11731388_a_at) / RFU KRTAP10-2 (11738614_at) / Fold change /veh KRTAP10-2 (11738614_at) / RFU ARHGAP8 /// PRR5-ARHGAP8 (11727945_x_at) / Fold change /veh ARHGAP8 /// PRR5-ARHGAP8 (11727945_x_at) / RFU KRTAP5-7 /// NADSYN1 (11734609_at) / Fold change /veh KRTAP5-7 /// NADSYN1 (11734609_at) / RFU RASL12 (11751679_a_at) / Fold change /veh RASL12 (11751679_a_at) / RFU CDKN2B (11736163_a_at) / Fold change /veh CDKN2B (11736163_a_at) / RFU PRF1 (11729649_at) / Fold change /veh PRF1 (11729649_at) / RFU, ZNF638 /// ZNF638-IT1 / Fold change vs veh, ZNF638 /// ZNF638-IT1 / RFU, PANK3 / Fold change vs veh, PANK3 / RFU, SH3YL1 / Fold change vs veh, SH3YL1 / RFU, ZEB2 / Fold change vs veh, ZEB2 / RFU, NRIP1 / Fold change vs veh, NRIP1 / RFU, PTTG1IP / Fold change vs veh, PTTG1IP / RFU, CAPN2 / Fold change vs veh, CAPN2 / RFU, MED14 / Fold change vs veh, MED14 / RFU, SNORA58 / Fold change vs veh, SNORA58 / RFU, C1orf63 / Fold change vs veh, C1orf63 / RFU, LRRFIP1 / Fold change vs veh, LRRFIP1 / RFU, NDUFAF7 / Fold change vs veh, NDUFAF7 / RFU, SLC12A2 / Fold change vs veh, SLC12A2 / RFU, IBTK / Fold change vs veh, IBTK / RFU, ESF1 / Fold change vs veh, ESF1 / Fold change vs veh, TMEM50B / RFU, TAOK1 / Fold change vs veh, TAOK1 / RFU, ACBD3 / Fold change vs veh, ACBD3 / RFU, TMA16 / Fold change vs veh, TMA16 / RFU, RWDD3 / Fold change vs veh, RWDD3 / RFU, BCAT1 / Fold change vs veh, BCAT1 / RFU, EDEM3 / Fold change vs veh, EDEM3 / RFU, TMEM33 / Fold change vs veh, TMEM33 / RFU, WDR75 / Fold change vs veh, WDR75 / RFU, AHCTF1 / Fold change vs veh, AHCTF1 / RFU, TFRC / Fold change vs veh, TFRC / RFU, ZDHHC17 / Fold change vs veh, ZDHHC17 / RFU, NOM1 / Fold change vs veh, NOM1 / RFU, ARL8B / Fold change vs veh, ARL8B / RFU, ZBTB11 / Fold change vs veh, ZBTB11 / RFU, TAMM41 / Fold change vs veh, TAMM41 / RFU, KIAA1704 /// LOC100996395 / Fold change vs veh, KIAA1704 /// LOC100996395 / RFU, ING1 / Fold change vs veh, ING1 / RFU, TRMT61B / Fold change vs veh, TRMT61B / RFU, FUBP3 / Fold change vs veh, FUBP3 / RFU, TP53 / Fold change vs veh, TP53 / RFU, TNKS2 / Fold change vs veh, TNKS2 / RFU, ZFP14 / Fold change vs veh, ZFP14 / RFU, ACTR2 / Fold change vs veh, ACTR2 / RFU, PPP3R1 / Fold change vs veh, PPP3R1 / RFU, PIK3R1 / Fold change vs veh, PIK3R1 / RFU, HNRNPA1 / Fold change vs veh, HNRNPA1 / RFU, RNF170 / Fold change vs veh, RNF170 / RFU, ZNF28 / Fold change vs veh, ZNF28 / RFU, RNGTT / Fold change vs veh, RNGTT / RFU, OGT / Fold change vs veh, OGT / RFU, BRD1 / Fold change vs veh, BRD1 / RFU, MARS / Fold change vs veh, MARS / RFU, ZNF655 / Fold change vs veh, ZNF655 / RFU, FAHD1 / Fold change vs veh, FAHD1 / RFU, BDP1 / Fold change vs veh, BDP1 / RFU, LRRCC1 / Fold change vs veh, LRRCC1 / RFU, ARID1A / Fold change vs veh, ARID1A / RFU, ZNF146 / Fold change vs veh, ZNF146 / RFU, ZNF330 / Fold change vs veh, ZNF330 / RFU, GPN3 / Fold change vs veh, GPN3 / RFU, C9orf123 / Fold change vs veh, C9orf123 / RFU, N4BP2L2 / Fold change vs veh, N4BP2L2 / RFU, ARFIP1 / Fold change vs veh, ARFIP1 / RFU, FAM179B / Fold change vs veh, FAM179B / RFU, BCL10 / Fold change vs veh, BCL10 / RFU, UHRF1BP1L / Fold change vs veh, UHRF1BP1L / RFU, BET1 / Fold change vs veh, BET1 / RFU, CNOT2 / Fold change vs veh, CNOT2 / RFU, ZNF268 / Fold change vs veh, ZNF268 / Fold change vs veh, ZNF507 / RFU, DGCR2 / Fold change vs veh, DGCR2 / RFU, WDSUB1 / Fold change vs veh, WDSUB1 / Fold change vs veh, HSP90B1 /// MIR3652 / RFU, ADSS / Fold change vs veh, ADSS / RFU, GK / Fold change vs veh, GK / RFU, ZNF148 / Fold change vs veh, ZNF148 / RFU, TAF9 / Fold change vs veh, TAF9 / RFU, SLC1A5 / Fold change vs veh, SLC1A5 / RFU, SLMO2 / Fold change vs veh, SLMO2 / RFU, ABCC4 / Fold change vs veh, ABCC4 / RFU, LOC101060439 /// RAP1B / Fold change vs veh, LOC101060439 /// RAP1B / RFU, RFX7 / Fold change vs veh, RFX7 / RFU, GTPBP10 / Fold change vs veh, GTPBP10 / RFU, CNEP1R1 / Fold change vs veh, CNEP1R1 / RFU, BIVM-ERCC5 /// ERCC5 / Fold change vs veh, BIVM-ERCC5 /// ERCC5 / RFU, ILF3 / Fold change vs veh, ILF3 / RFU 11762660_at / Fold change /veh 11762660_at / RFU VCAN (11757783_s_at) / Fold change /veh VCAN (11757783_s_at) / RFU DDX43 (11728927_at) / Fold change /veh DDX43 (11728927_at) / RFU KRT8 (11758188_x_at) / Fold change /veh KRT8 (11758188_x_at) / RFU NKD1 (11759106_at) / Fold change /veh NKD1 (11759106_at) / RFU SRD5A1 (11742802_a_at) / Fold change /veh SRD5A1 (11742802_a_at) / RFU TPSAB1 /// TPSB2 (11721975_s_at) / Fold change /veh TPSAB1 /// TPSB2 (11721975_s_at) / RFU GSTM3 (11746129_a_at) / Fold change /veh GSTM3 (11746129_a_at) / RFU IL23R (11737362_x_at) / Fold change /veh IL23R (11737362_x_at) / RFU TMEM51 (11727254_a_at) / Fold change /veh TMEM51 (11727254_a_at) / RFU PIWIL2 (11732686_x_at) / Fold change /veh PIWIL2 (11732686_x_at) / RFU ORM1 (11744905_x_at) / Fold change /veh ORM1 (11744905_x_at) / RFU CCDC152 (11743942_at) / Fold change /veh CCDC152 (11743942_at) / RFU ECM1 (11717891_a_at) / Fold change /veh ECM1 (11717891_a_at) / RFU IL23R (11748794_a_at) / Fold change /veh IL23R (11748794_a_at) / RFU TNFAIP8L3 (11732012_x_at) / Fold change /veh TNFAIP8L3 (11732012_x_at) / RFU MBOAT4 (11741988_at) / Fold change /veh MBOAT4 (11741988_at) / RFU 11764193_at / Fold change /veh 11764193_at / RFU TMEM53 (11763286_at) / Fold change /veh TMEM53 (11763286_at) / RFU MAGEB2 (11727129_at) / Fold change /veh MAGEB2 (11727129_at) / RFU TMEM200A (11744735_a_at) / Fold change /veh TMEM200A (11744735_a_at) / RFU CCDC152 (11751479_a_at) / Fold change /veh CCDC152 (11751479_a_at) / RFU FAM211A (11726209_a_at) / Fold change /veh FAM211A (11726209_a_at) / RFU RGS16 (11746705_a_at) / Fold change /veh RGS16 (11746705_a_at) / RFU VCAN (11755009_s_at) / Fold change /veh VCAN (11755009_s_at) / RFU RHOB (11743442_s_at) / Fold change /veh RHOB (11743442_s_at) / RFU RGS16 (11720943_a_at) / Fold change /veh RGS16 (11720943_a_at) / RFU RGS16 (11720944_at) / Fold change /veh RGS16 (11720944_at) / RFU, VPS4B / Fold change vs veh, VPS4B / RFU, CREB1 / Fold change vs veh, CREB1 / RFU, DNAJC13 / Fold change vs veh, DNAJC13 / RFU, GNAQ / Fold change vs veh, GNAQ / RFU, CDK5R1 / Fold change vs veh, CDK5R1 / RFU, ZRANB3 / Fold change vs veh, ZRANB3 / RFU, CUL4A / Fold change vs veh, CUL4A / RFU, CCNY / Fold change vs veh, CCNY / RFU, UFL1 / Fold change vs veh, UFL1 / RFU, COG3 / Fold change vs veh, COG3 / RFU, DIAPH2 / Fold change vs veh, DIAPH2 / RFU, SKA2 / Fold change vs veh, SKA2 / RFU, AFF3 / Fold change vs veh, AFF3 / RFU, LMF1 / Fold change vs veh, LMF1 / RFU, IPO11 / Fold change vs veh, IPO11 / RFU, DFFB / Fold change vs veh, DFFB / RFU, FOXP1 / Fold change vs veh, FOXP1 / RFU, CARD8 / Fold change vs veh, CARD8 / RFU, STRN3 / Fold change vs veh, STRN3 / RFU, ADK / Fold change vs veh, ADK / RFU, RASSF2 / Fold change vs veh, RASSF2 / RFU, WIPF1 / Fold change vs veh, WIPF1 / RFU, LARP1B / Fold change vs veh, LARP1B / RFU, RASA1 / Fold change vs veh, RASA1 / RFU, RB1 / Fold change vs veh, RB1 / RFU, PPFIA1 / Fold change vs veh, PPFIA1 / RFU, MAT2A / Fold change vs veh, MAT2A / RFU, CCT5 / Fold change vs veh, CCT5 / RFU, WDR92 / Fold change vs veh, WDR92 / RFU, CUX1 / Fold change vs veh, CUX1 / RFU, TTC7A / Fold change vs veh, TTC7A / RFU, TMEM135 / Fold change vs veh, TMEM135 / RFU, DEPTOR / Fold change vs veh, DEPTOR / RFU, CPM / Fold change vs veh, CPM / RFU, DNAJB6 / Fold change vs veh, DNAJB6 / RFU, CACNA2D3 / Fold change vs veh, CACNA2D3 / RFU, DTX4 / Fold change vs veh, DTX4 / RFU, TFCP2 / Fold change vs veh, TFCP2 / RFU, GMCL1 /// GMCL1P1 / Fold change vs veh, GMCL1 /// GMCL1P1 / RFU, AEBP2 / Fold change vs veh, AEBP2 / RFU, SNHG1 /// SNORD22 /// SNORD25 /// SNORD26 /// SNORD27 /// SNORD28 /// SNORD29 /// SNORD31 / Fold change vs veh, SNHG1 /// SNORD22 /// SNORD25 /// SNORD26 /// SNORD27 /// SNORD28 /// SNORD29 /// SNORD31 / Fold change (Aza/veh), C12orf56 (ProbeSet 11735607_a_at) / Fold change (ACY-1035/veh), C12orf56 (ProbeSet 11735607_a_at) / Fold change (Aza/veh), FGFR1OP (ProbeSet 11751329_s_at) / Fold change (ACY-1035/veh), FGFR1OP (ProbeSet 11751329_s_at) / Fold change (Aza/veh), VPS36 (ProbeSet 11739960_a_at) / Fold change (ACY-1035/veh), VPS36 (ProbeSet 11739960_a_at) / RFU SYPL1 (11715823_x_at) / Fold change /veh SYPL1 (11715823_x_at) / RFU IGFBP7 (11715501_s_at) / Fold change /veh IGFBP7 (11715501_s_at) / RFU REEP3 (11722064_at) / Fold change /veh REEP3 (11722064_at) / RFU IGLL1 (11728026_x_at) / Fold change /veh IGLL1 (11728026_x_at): dose or concentration left out as unconfirmed. The conditions noted are these: MV-4-11 cells, 48 hours.

Structures are written as SMILES.

For `Nc1ncn([C@@H]2O[C@H](CO)[C@@H](O)[C@H]2O)c(=O)n1` [azacitidine], the “Fold change /veh TMEM51 (11727254_a_at)” value is recorded as 1.21.
